Laboratory results published in PubChem BioAssay AID540268 (Broad Institute, 2011).

Experiment: reduced viability of parasite-Hsp90 expressing yeast – ATP luminescence, 48 h, cherry-picked samples, anti-malarial Hsp90 inhibitor project, dose response (AID 540268)
Conditions: yeast expressing the parasite Hsp90, ATP luminescence

SMILES	AC50
CCN(CC)c1ccc(C(=C2C=CC(=[N+](CC)CC)C=C2)c2ccc(N(CC)CC)cc2)cc1	0.735 µM
Cc1ccc(O)c(-c2cc(-c3cccc(Br)c3)n[nH]2)c1	4.38 µM
COc1ccc(/C=C/C(=O)NC(=S)NNC(=O)c2cnccn2)cc1	0.854 µM
Cc1ccc(C(=O)C(SC(C)(C)C)n2cncn2)cc1 (stereo unspecified)	4.25 µM
O=C(NCCCCc1ccccc1)c1ccc(Br)cc1	4.42 µM
COc1cccc(N=Nc2ccc(O)c3ncccc23)c1	3.57 µM
O=C(Nc1ccccc1N1CCOCC1)c1ccc([N+](=O)[O-])o1	4.41 µM
O=C(CCSc1ccc(Br)cc1)c1ccc(O)cc1	3.64 µM
COc1ccc(C2=CC3=C(Br)C(=O)C(C)(O)C(=O)C3=CO2)cc1 (stereo unspecified)	1.73 µM
CC(=NNC(=S)N1CCN(C2CCCCCC2)CC1)c1ccccn1	3.95 µM
COc1cc(/C=C2\SC(=S)N(Nc3ncc(C(F)(F)F)cc3Cl)C2=O)ccc1O	25.8 µM
O=C1/C(=C\c2ccc([N+](=O)[O-])cc2)CS(=O)(=O)C/C1=C/c1ccc([N+](=O)[O-])cc1	0.337 µM
COC(=O)C1CN(C#N)N(c2ccc(Cl)cc2)C12c1ccccc1-c1ccccc12 (stereo unspecified)	4.07 µM
CC(=NNC(=S)Nc1cccc(Cl)c1)c1ccccn1	16.6 µM
CCCCC(=O)NC(c1ccccc1OC)c1ccc2cccnc2c1O (stereo unspecified)	4.45 µM
COC(=O)c1ccc(N2C(=O)CC(N(C)Cc3ccccc3)C2=O)cc1 (stereo unspecified)	8.53 µM
O=c1c(Br)ccc(Br)cc1Br	0.38 µM
O=C(/C(=C/O)N=Nc1ccccc1)c1ccc(Cl)cc1	6.25 µM
CC1CCN(C2CC(=O)N(c3ccc(Br)cc3Br)C2=O)CC1 (stereo unspecified)	0.774 µM
OC(Cn1cncn1)(c1ccc(F)cc1)c1ccc(Cl)cc1 (stereo unspecified)	< 0.195 µM
COC(=O)C1CCN(C2CC(=O)N(c3cc(C)cc(C)c3)C2=O)CC1 (stereo unspecified)	7.68 µM
c1ccc(-c2ccc(C(c3ccccc3)n3ccnc3)cc2)cc1 (stereo unspecified)	1.07 µM
Cc1ccc2nc(-c3ccc(NS(C)(=O)=O)cc3)cc(-c3ccccc3)c2c1	2.95 µM

SMILES	AC50
Oc1ccc(Cl)cc1Sc1cc(Cl)ccc1O	3.07 µM
O=c1ccc(N=Nc2ccccc2)ccc1O	1.48 µM
COc1ccc2c(c1)[C@H]1[C@H](CO2)[C@H](c2ccccc2)[C@]2(C)C(=O)Nc3ccc(Br)cc3C(=O)N12	1.74 µM
Clc1ccccc1CN(Cc1ccco1)Cc1nnnn1C1CCCC1	9.49 µM
CCCCCCCCCCCCCCCC[n+]1cccc2ccccc21	3.05 µM
Cc1cc(/C=C2\SC(=S)NC2=O)c(C)n1-c1cccc(O)c1	8.7 µM
CCCC(=O)NC(c1ccc(OC)c(OC)c1)c1cc(Cl)c2cccnc2c1O (stereo unspecified)	6.12 µM
COc1cc(SC)ccc1C(=O)Nc1nc2ccccc2[nH]1	1.96 µM
CC(C)(C)C(=O)NC(=S)NNC(=O)c1sc2ccccc2c1Cl	7.72 µM
Oc1cc(OCc2ccccc2)ccc1-c1[nH]ncc1-c1ccccc1	9.04 µM
O=C1CC(N2CCC(c3nc4ccccc4o3)CC2)C(=O)N1c1ccc(Cl)c(C(F)(F)F)c1 (stereo unspecified)	4.08 µM
Oc1ccc(/C=N/N(Cc2ccccc2)c2ccccc2)cc1	8.09 µM
O=C(NN1C(=O)/C(=C\c2ccc(O)c([N+](=O)[O-])c2)SC1=S)c1ccccc1Cl	5.92 µM
CC(C)N1CCN(c2ccc(OC[C@H]3CO[C@](Cn4cncn4)(c4ccc(Cl)cc4Cl)O3)cc2)CC1	1.5 µM
Cc1[nH]oc(=O)c1N=Nc1c(Cl)cccc1Cl	24.9 µM
CC(=O)N(C(C)=O)N1C(=O)/C(=C/c2ccc(Cl)cc2)SC1=S	3.28 µM
COc1cccc2c1C(=O)c1c(O)c3c(c(O)c1C2=O)CC(O)(C(C)=O)CC3OC1CC(N(C)C)C(O)C(C)O1 (stereo unspecified)	1.58 µM
OCCOCCn1c(C2CCCN2c2nc(-c3ccc(F)cc3)cs2)nc2cc(Cl)c(Cl)cc21 (stereo unspecified)	6 µM
O=C(O)c1ccc(N/N=C/c2ccc(-c3cccc(Cl)c3)o2)cc1	8.69 µM
COc1ccc2c3c(ccc2c1)C(=O)/C(=C/O)CC3	4.29 µM
CC(=NNC(=S)Nc1cccc(C)c1)c1ccccn1	4.3 µM
Cc1ccc(/C=C/C(=O)c2ccccc(=O)c2O)cc1C	8.01 µM
O=S(=O)(NC1CC2CCC1C2)c1ccc(Br)cc1 (stereo unspecified)	0.86 µM
